The values below come from patent US8304447B2, “2-acylaminopropoanol-type glucosylceramide synthase inhibitors” (Genzyme Corporation, priority 2007, dated 2012).

The first assay has as its system GM3. The assay is described as follows: GM3 Elisa assay. Format: cell-based. To be noted: 48 h, Table 1; B16-FO cells, 2 days incubation; read-out: IC50_uM_Mean. In outline: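 Cellular GM3 ELISA: fixed cells probed with monoclonal anti-GM3 (NeuAc), HRP-conjugated anti-IgM and fluorogenic Quantablu substrate, read at Ex 325/Em 420. Cells were B16-FO, treated 2 days after a 6 h attachment on collagen-coated wells.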
With `O=C(CCOc1ccccc1)N[C@H](CN1CCCC1)[C@H](O)c1ccc2c(c1)OCCO2` [Compound 27, N-((1R,2R)-1-(2,3-dihydrobenzo[β][1,4]dioxin-6-yl)-1-hydroxy-3-(pyrrolidin-1-yl)propan-2-yl)-3-phenoxypropanamide], the IC50 is at most 100 nM.

For the molecule `O=C(Cc1ccc(-c2ccccc2)cc1)N[C@H](CN1CCCC1)[C@H](O)c1ccc2c(c1)OCCO2` [Compound 23, 2-(biphenyl-4-yl)-N-((R,2R)-1-(2,3-dihydrobenzo[β][1,4]dioxin-6-yl)-1-hydroxy-3-(pyrrolidin-1-yl)propan-2-yl)acetamide], the IC50 was at most 100 nM.

Take `O=C(CCCCNC(=O)c1ccccc1)N[C@H](CN1CCCC1)[C@H](O)c1ccc2c(c1)OCCO2` [Compound 104, N-(5-((1R,2R)-1-(2,3-dihydrobenzo[β][1,4]dioxin-6-yl)-1-hydroxy-3-(pyrrolidin-1-yl)propan-2-ylamino)-5-oxopentyl)benzamide]: the IC50 was in the range of 100 to 1000 nM.

For the molecule `O=C(CSCc1ccccc1)N[C@H](CN1CCCC1)[C@H](O)c1ccc2c(c1)OCCO2` [Compound 39, 2-(benzylthio)-N-((1R,2R)-1-(2,3-dihydrobenzo[β][1,4]dioxin-6-yl)-1-hydroxy-3-(pyrrolidin-1-yl)propan-2-yl)acetamide], the IC50 was at most 100 nM.

`O=C(COc1ccc(Cl)c(Cl)c1)N[C@H](CN1CCCC1)[C@H](O)c1ccc2c(c1)OCCO2` [Compound 87, 2-(3,4-dichlorophenoxy)-N-((1R,2R)-1-(2,3-dihydrobenzo[β][1,4]dioxin-6-yl)-1-hydroxy-3-(pyrrolidin-1-yl)propan-2-yl)acetamide]: the IC50 is at most 100 nM.

Staying with this assay, now noted: 48 h, Table 2; B16-FO cells, 2 days incubation; read-out: IC50_uM_Mean.
Take `CC(C)Oc1ccc(C(=O)CCCC(=O)N[C@H](CN2CCCC2)[C@H](O)c2ccc3c(c2)OCCO3)cc1` [Compound 284, N-((1R,2R)-1-(2,3-dihydrobenzo[β][1,4]dioxin-6-yl)-1-hydroxy-3-(pyrrolidin-1-yl)propan-2-yl)-5-(4-isopropoxyphenyl)-5-oxopentanamide]: the IC50 is at most 100 nM.

As to `COc1ccc([C@@H](O)[C@@H](CN2CCCC2)NC(=O)CCCCCC(C)(C)OC)cc1OC` [Compound 277], the IC50 is 3000 to 10000 nM.

Take `O=C(Cc1ccc(OC(F)(F)F)cc1)N[C@H](CN1CCOCC1)[C@H](O)c1ccc2c(c1)OCCO2` [Compound 258]: the IC50 was in the range of 3000 to 10000 nM.

For the molecule `COc1ccc([C@@H](O)[C@@H](CN2CCCC2)NC(=O)CCCOc2ccc(C(C)=O)cc2)cc1OC` [Compound 278], the IC50 is above 10000 nM.

With `COc1ccc(C(=O)CCCCCC(=O)N[C@H](CN2CCCC2)[C@H](O)c2ccc(OC)c(OC)c2)cc1` [Compound 276], the IC50 lay within 100 to 1000 nM.

In the case of `COc1ccc(CNC(=O)N(C)[C@H](CN2CCCC2)[C@H](O)c2ccc3c(c2)OCCO3)cc1` [Compound 256], the IC50 fell in the range of 100 to 1000 nM.

Consider `COc1ccc([C@@H](O)[C@@H](CN2CCCC2)NC(=O)CCCCCC(C)(C)OC)cc1` [Compound 273], for which the IC50 was 100 to 1000 nM.

For the molecule `CCCCCCCCCCCCCCCC(=O)N[C@H](CN1CCCC1)[C@H](O)c1ccc(O)cc1` [Compound 309], the IC50 was at most 100 nM.

Turning to `C[C@@H](NC(=O)N[C@H](CN1CCCC1)[C@H](O)c1ccc2c(c1)OCCO2)c1ccccc1` [Compound 286, 1-((1R,2R)-1-(2,3-dihydrobenzo[β][1,4]dioxin-6-yl)-1-hydroxy-3-(pyrrolidin-1-yl)propan-2-yl)-3-(®-1-phenylethyl)urea], the IC50 was 3000 to 10000 nM.

The same assay, now with this note: Table 3 (IC 50 Values); B16-FO cells; read-out: IC50_uM_Mean.
For `COc1ccc(OCCC(=O)N[C@@H](CN2CCCC2)[C@@H](O)c2ccc3c(c2)OCCO3)cc1` [Compound 674], the IC50 was in the range of 3000 to 10000 nM.

As for `COc1ccc(C(=O)CCCCCC(=O)N[C@H](CN2CCCC2)[C@H](O)c2ccccc2OC)cc1` [Compound 699], the IC50 is at most 100 nM.

As for `O=C(CC12CC3CC(CC(C3)C1)C2)N[C@@H](CN1CCCC1)C(O)c1ccc2c(c1)OCCO2` (stereo partly shown) [Compound 636], the IC50 fell in the range of 3000 to 10000 nM.

On to `COc1ccc(C(=O)CCCCCC(=O)N[C@H](CN2C3CCC2CC3)[C@H](O)c2ccc3c(c2)OCCO3)cc1` [Compound 522], for which the IC50 is at most 100 nM.

In the case of `CCCNC[C@@H](NC(=O)CCCCCC(=O)c1ccc(OC)cc1)C(O)c1ccc2c(c1)OCCO2` (stereo partly shown) [Compound 467], the IC50 fell in the range of 100 to 1000 nM.

For the molecule `COc1ccc(OCCC(=O)N[C@H](CN2CCCC2)[C@H](O)/C=C/c2ccccc2)cc1` [Compound 396], the IC50 was 3000 to 10000 nM.

As to `O=C(CCCCCNC(=O)C(F)(F)F)N[C@H](CN1CCCC1)[C@H](O)c1ccc2c(c1)OCCO2` [Compound 481], the IC50 was 3000 to 10000 nM.

With `O=C(Cc1ccc(OC(F)(F)F)cc1)N[C@H](CN1CCCC1)[C@H](O)/C=C/c1ccccc1` [Compound 392], the IC50 fell in the range of 3000 to 10000 nM.

For the molecule `COc1ccc(C(=O)CCCCCC(=O)N[C@H](CN2CC(O)C2)[C@H](O)c2ccc3c(c2)OCCO3)cc1` [Compound 600], the IC50 fell in the range of 1000 to 3000 nM.

Take `O=C(Cc1ccc(OC(F)(F)F)cc1)N[C@H](CN1CCCC1)[C@H](O)c1ccc2c(c1)OC(F)(F)O2` [Compound 410]: the IC50 fell in the range of 3000 to 10000 nM.

In the case of `COCCc1ccc([C@@H](O)[C@@H](CN2CCCC2)NC(=O)CCCC(=O)c2ccc(OC)cc2)cc1` [Compound 355], the IC50 fell in the range of 1000 to 3000 nM.

`O=C(Cc1ccc(OC(F)(F)F)cc1)N[C@H](CN1CCCC1)[C@H](O)c1ccc(Cl)cc1` [Compound 381]: the IC50 was 1000 to 3000 nM.

As for `O=C(CCCNC(=O)NC1CCCCC1)N[C@H](CN1CCCC1)[C@H](O)c1ccc2c(c1)OCCO2` [Compound 691], the IC50 is 3000 to 10000 nM.

In the case of `COc1ccc(C(=O)CCCCCC(=O)N[C@H](CN2CCCCC2C)[C@H](O)c2ccc3c(c2)OCCO3)cc1` (stereo partly shown) [Compound 607], the IC50 was 1000 to 3000 nM.

`COc1ccc(C(=O)CCCCCC(=O)N[C@H](CNC2CCCCC2)[C@H](O)c2ccc3c(c2)OCCO3)cc1` [Compound 458]: the IC50 is 3000 to 10000 nM.

In the case of `COc1ccc(C(=O)CCCCC(=O)N[C@H](CN2CCCC2)[C@H](O)c2ccc(OCCOc3ccccc3F)cc2)cc1` [Compound 366], the IC50 is at most 100 nM.

For `CCCCCCCCCCCCCCCC(=O)N[C@H](CNC1CCCC1)[C@H](O)c1ccc2c(c1)OCCO2` [Compound 681], the IC50 lay within 1000 to 3000 nM.

Turning to `COc1ccc(OCCC(=O)N(Cc2cccc3ccncc23)[C@H](CN2CCCC2)[C@H](O)c2ccc(O)cc2)cc1` [Compound 719], the IC50 was in the range of 3000 to 10000 nM.

As for `COc1ccc(C(=O)CCCCCC(=O)N[C@H](CN2CCCC2)[C@H](O)c2cc(OC)c(OC)c(OC)c2)cc1` [Compound 668], the IC50 lay in the range of 1000 to 3000 nM.

For the molecule `O=C(N[C@H](CO)[C@H](O)c1ccc2c(c1)OC(F)(F)O2)OCc1ccccc1` [Compound 406], the IC50 fell in the range of 3000 to 10000 nM.

In the case of `COc1ccc(C(=O)CCCCCC(=O)N[C@H](CN2C3CCC2CC3)[C@H](O)c2ccc(OC(C)C)cc2)cc1` [Compound 377], the IC50 was at most 100 nM.

As to `COc1ccc(OCCC(=O)N[C@H](CN2CCCC2)[C@H](O)c2ccc(Cl)s2)cc1` [Compound 493], the IC50 lay within 1000 to 3000 nM.

Consider `COc1ccc(C(=O)CCCC(=O)N[C@H](CN2CCCC2)[C@H](O)/C=C/c2ccccc2)cc1` [Compound 393], for which the IC50 was in the range of 3000 to 10000 nM.

Take `COc1ccc(C(=O)CCCCC(=O)N[C@H](CN2CCCC2)[C@H](O)c2ccc(OC)cc2OC)cc1` [Compound 353]: the IC50 fell in the range of 100 to 1000 nM.

`COc1ccc(OCCC(=O)N[C@H](CN2CC(O)C2)[C@H](O)c2ccc3c(c2)OCCO3)cc1` [Compound 601]: the IC50 lay within 3000 to 10000 nM.

As for `O=C(CCCCc1nc(C2CC2)no1)N[C@H](CN1CCCC1)[C@H](O)c1ccc2c(c1)OCCO2` [Compound 650], the IC50 lay in the range of 100 to 1000 nM.

As to `CCCCCCCCC(=O)N[C@H](CN1CCCC1)[C@H](O)c1ccc(OC)c(Cl)c1` [Compound 708], the IC50 was at most 100 nM.

For the molecule `COc1ccc(CCNC(=O)N[C@H](CN2CCCC2)[C@H](O)c2ccc3c(c2)OCCO3)cc1` [Compound 480], the IC50 lay within 1000 to 3000 nM.

Regarding `COc1ccc(C(=O)CCCC(=O)N[C@H](CN2CC[C@H](O)C2)[C@H](O)c2ccc(OC(C)C)cc2)cc1` [Compound 732], the IC50 is 100 to 1000 nM.

`COc1ccc(C(=O)CCCCCC(=O)N[C@H](CN2CCCC2)[C@H](O)c2ccc(OC)c(F)c2)cc1` [Compound 345]: the IC50 is at most 100 nM.

As to `CCCCOc1ccc([C@@H](O)[C@@H](CN2CC[C@@H](F)C2)NC(=O)CCCCCOC2CCC2)cc1` [Compound 662], the IC50 lay within 100 to 1000 nM.

On to `COCCOc1ccc(C(=O)CCCC(=O)N[C@H](CN2CCCC2)[C@H](O)c2ccc(OC(C)C)cc2)cc1` [Compound 451], for which the IC50 fell in the range of 100 to 1000 nM.

For `COc1ccc(OCCCN(C(=O)CCCCC(=O)c2ccc(OC)cc2)[C@H](CN2CCCC2)[C@H](O)c2ccc(O)cc2)cc1` [Compound 429], the IC50 fell in the range of 3000 to 10000 nM.

For `O=C(CCCS(=O)(=O)C1CCCCC1)N[C@H](CN1CCCC1)[C@H](O)c1ccc2c(c1)OCCO2` [Compound 561], the IC50 lay in the range of 3000 to 10000 nM.

Consider `CCCOC1CC(C[C@@H](NC(=O)CCOc2ccc(OC)cc2)[C@H](O)c2ccc3c(c2)OCCO3)C1` (stereo partly shown) [Compound 597], for which the IC50 lay in the range of 3000 to 10000 nM.

Take `COc1ccc(OCCC(=O)N[C@H](CN2CCCC2(C)C)[C@H](O)c2ccc3c(c2)OCCO3)cc1` [Compound 551]: the IC50 fell in the range of 3000 to 10000 nM.

`CCCCCCCC(=O)N[C@H](CN1CCCC1)[C@H](O)c1ccc(C)c(F)c1` [Compound 348]: the IC50 fell in the range of 100 to 1000 nM.

In the case of `COc1ccc(C(=O)CCCCCC(=O)N[C@H](CNCC(C)(C)C)[C@H](O)c2ccc3c(c2)OCCO3)cc1` [Compound 466], the IC50 lay within 3000 to 10000 nM.

Take `COc1ccc(C(=O)CCCCCC(=O)N[C@H](CN2CCC[C@@H]2C)[C@@H](O)c2ccc3c(c2)OCCO3)cc1` [Compound 525]: the IC50 is at most 100 nM.

Consider `CCCCCCOc1ccc([C@@H](O)[C@@H](CN2C3CCC2CC3)NC(=O)CCCCC(=O)c2ccc(OC)cc2)cc1` [Compound 370], for which the IC50 is at most 100 nM.

For `COc1ccc(S(=O)(=O)CCCCCC(=O)N[C@H](CN2CC[C@@H](F)C2)[C@H](O)c2ccc3c(c2)OCCO3)cc1` [Compound 564], the IC50 lay within 100 to 1000 nM.
